According to ChEMBL document CHEMBL5532726, “Somatostatin Receptor Subtype 4 Agonists for Potential Treatment of Alzheimer's Disease and Other Central Nervous System Disorders” (ACS Med Chem Lett, 2024):

Target: Somatostatin receptor type 1 (Homo sapiens, UniProt P30872)
Sequence (P30872 whole entry): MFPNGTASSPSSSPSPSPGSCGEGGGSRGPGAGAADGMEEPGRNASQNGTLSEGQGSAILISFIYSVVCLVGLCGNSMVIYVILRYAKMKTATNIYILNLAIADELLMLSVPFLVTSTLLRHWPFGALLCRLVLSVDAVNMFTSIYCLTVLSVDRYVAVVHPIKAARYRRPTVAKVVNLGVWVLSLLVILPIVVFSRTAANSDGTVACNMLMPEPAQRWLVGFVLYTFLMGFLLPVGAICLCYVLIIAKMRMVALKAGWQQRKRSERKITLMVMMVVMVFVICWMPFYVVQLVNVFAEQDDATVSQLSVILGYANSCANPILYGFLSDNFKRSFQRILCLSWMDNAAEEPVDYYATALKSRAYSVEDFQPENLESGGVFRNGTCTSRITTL

IC50: > 50.1 µM
SMILES: CC(Oc1ccccc1C1CC1)C(=O)N[C@H]1CCNC[C@@H]1F (stereo partly specified)
